Test results from patent US4396628A (priority 1982, dated 1983).
pIC50: −log10 of the molar value. Entries after “also recorded” stand apart in the source; their conditions may differ. Where two headings read alike, the source gives them in different places.

Columns and labels:
[1] = molecular target: T1, guinea pig liver transglutaminase (Cavia cutleri, UniProt P08587); assay: guinea pig liver transglutaminase activity, incorporation of 3H-putrescine into casein; format: biochemical; settings: for pIC50: 3H-putrescine into casein, read-out: Half-maximal Inhibitory Concentration, transglutaminase; for potency ranking in the transglutaminase assay: in words
T1 construct: guinea pig liver transglutaminase activity; from tissue; host or cells: guinea pig liver
T1 sequence (P08587 2-690): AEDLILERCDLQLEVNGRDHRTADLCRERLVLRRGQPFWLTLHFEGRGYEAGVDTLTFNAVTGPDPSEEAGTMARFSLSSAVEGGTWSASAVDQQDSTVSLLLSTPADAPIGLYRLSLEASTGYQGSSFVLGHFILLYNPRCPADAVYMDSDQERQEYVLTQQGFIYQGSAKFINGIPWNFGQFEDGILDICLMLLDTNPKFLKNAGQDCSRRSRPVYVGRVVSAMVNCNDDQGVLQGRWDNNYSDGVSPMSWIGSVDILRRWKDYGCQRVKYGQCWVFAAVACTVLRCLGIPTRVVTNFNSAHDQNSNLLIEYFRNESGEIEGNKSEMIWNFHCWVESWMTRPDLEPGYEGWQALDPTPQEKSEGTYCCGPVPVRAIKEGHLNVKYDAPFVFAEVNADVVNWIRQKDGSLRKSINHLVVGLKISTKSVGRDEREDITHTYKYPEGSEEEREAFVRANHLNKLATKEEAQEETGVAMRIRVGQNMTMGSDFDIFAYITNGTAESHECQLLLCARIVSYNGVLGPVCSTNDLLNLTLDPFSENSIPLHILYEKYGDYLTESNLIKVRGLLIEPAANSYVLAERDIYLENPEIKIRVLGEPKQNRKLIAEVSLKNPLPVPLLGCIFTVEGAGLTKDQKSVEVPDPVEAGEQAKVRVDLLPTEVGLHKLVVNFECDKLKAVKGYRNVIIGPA
Method: Effect of Dansylcadaverine, Amantadine, and Rimantadine
on the Activity of Guinea Pig Liver Transglutaminase
Enzyme activity was measured by the incorporation of ^3 H-putrescine into casein. All three inhibitors of viral and α2 M internalization were also inhibitory in the transglutaminase assay.

[2] = tested on: vesicular stomatitis virus (VSV); assay: microbe, parasite or virus in culture; format: cell-based, vesicular stomatitis virus; Swiss 3T3 mouse cells; settings: for VSV-dependent RNA synthesis when VSV neutralizing antibody omitted (reversibility): Swiss 3T3, inhibitor-treated cultures; for pIC50: Vesicular stomatitis virus, Swiss-3T3, in Mus musculus, 10 min, read-out: half-maximal inhibitory concentration, VSV dependent RNA synthesis; for effect on VSV entry / VSV dependent RNA synthesis: in words
[3] = tested on: α2 macroglobulin (α2 M) uptake, Swiss 3T3 cells; assay: uptake (internalization) of 125I-α2 macroglobulin by Swiss 3T3 cells; format: cell-based, mouse; settings: for pIC50: Mus musculus, 0.75 h, Swiss 3T3, 0.5 μg/ml 125I-α2 M, 45 min at 37° C., read-out: half-maximal inhibitory concentration, α2 M uptake; for effect on α2 macroglobulin uptake: in words
[4] = tested on: vesicular stomatitis virus (VSV); format: cell-based, vesicular stomatitis virus; Swiss 3T3 mouse cells; settings: for effect on uptake of VSV and α2 M via coated pits: Swiss 3T3, EM
[5] = tested on: α2 M in coated pits, Swiss 3T3 cells; assay: electron microscopy (peroxidase staining) of α2 M appearance in coated pits of Swiss 3T3 cells; format: cell-based, mouse; settings: 250 μg/ml α2 M; for α2 M appearance in coated pits: 45 min at 4° C., varying inhibitor concentrations
Method: Swiss 3T3 cells were incubated with 250 μg/ml α2 M at 4° C., with and without inhibitor. Em localization of α2 M was performed using a peroxidase staining technique.
Varying concentrations of amantadine and rimantadine were present during the incubation period. The cells were then washed, fixed for EM and the α2 M located by the peroxidase method. […] In the absence of inhibitors, α2 M was easily detected in coated pits by the peroxidase techniques (FIG. 5B).

[6] = tested on: Swiss 3T3 cells
[7] = tested on: Swiss 3T3 cells; assay: cytotoxicity and cellular RNA synthesis in drug-treated Swiss 3T3 cultures; settings: Swiss 3T3, experimental protocol of FIG. 2
[8] = tested on: vesicular stomatitis virus (VSV); format: cell-based, vesicular stomatitis virus; Swiss 3T3 mouse cells; settings: 200 μM; 10 min at 37° C.; MOI 500

SMILES	pIC50 [1]	potency ranking in the transglutaminase assay [1]	VSV-dependent RNA synthesis when VSV neutralizing antibody omitted (reversibility) [2]	pIC50 [2]	effect on VSV entry / VSV dependent RNA synthesis [2]	pIC50 [3]	effect on α2 macroglobulin uptake [3]	effect on uptake of VSV and α2 M via coated pits [4]	α2 M appearance in coated pits [5]	α2 M localization by EM ([5]; 5 mM amantadine, 4° C. (FIG. 5C))	cellular RNA synthesis, drug-treated versus control cultures [6]	cytotoxicity [7]	potency relative to amantadine, VSV uptake (antiviral) ([2]; dansylcadaverine versus amantadine)	intracellular VSV G protein / VSV uptake by immunofluorescence [8]	coated pit appearance in VSV-infected cells by EM ([4]; 100 μM dansylcadaverine (FIG. 4D))	coated pit appearance in VSV-infected cells by EM ([4]; 500 μM dansylcadaverine (FIG. 4E))	coated pit appearance in VSV-infected cells by EM ([4]; 1 mM rimantadine (FIG. 4F))	α2 M localization by EM ([5]; 1 mM rimantadine, 4° C. (FIG. 5D))
NC12CC3CC(CC(C3)C1)C2 [amantadine, 1-adamantanamine]	1.70	third	control levels of VSV-dependent RNA synthesis	3.00	reduction of VSV-dependent RNA synthesis; also recorded: inhibit VSV entry; also recorded: reduced VSV dependent RNA synthesis	2.60	inhibit the uptake of α2 macroglobulin	drastically perturbed this uptake mechanism	inhibition of α2 M appearance in coated pits	α2 M bound diffusely to the plasma membrane	equivalent in control and drug-treated cultures	no evidence of cytotoxicity	–	–	–	–	–	–
CN(C)c1cccc2c(S(=O)(=O)NCCCCCN)cccc12 [dansylcadaverine]	3.70	most potent	control levels of VSV-dependent RNA synthesis	4.30	blocking virus (such as vesicular stomatitis virus, VSV), and α2 macroglobulin uptake; also recorded: reduction of VSV-dependent RNA synthesis; also recorded: inhibit VSV entry; also recorded: reduced VSV dependent RNA synthesis	3.82	inhibit the uptake of α2 macroglobulin	drastically perturbed this uptake mechanism	–	–	equivalent in control and drug-treated cultures	no evidence of cytotoxicity	20 fold	little or no G protein	vacant coated pit	vacant coated pit	–	–
CC(N)C12CC3CC(CC(C3)C1)C2 (stereo not drawn) [rimantadine]	2.30	second most potent	–	–	–	3.30	–	drastically perturbed this uptake mechanism	inhibition of α2 M appearance in coated pits	–	–	–	–	–	–	–	vacant coated pit	α2 M bound to plasma membrane
